The values that follow come from patent publication EP1557429A1, “Site-directed coupling of proteins” (Vectron Therapeutics AG, priority 2004, dated 2005).

This assay deals with A431 cells. Description: Binding of FITC-labeled EGFm1 to A431 cells, flow cytometry. It is filed as cell-based. The protocol: • Fig. 1: Schematic representation of the strategy to isolate side-chain deaminated ligands (A) or side-chain decarboxylated ligands (B). Randomization in approach A is performed by using sets of amino acids (X) devoid of lysines or lysines and arginines. Randomization in approach B is performed by using sets of amino acids (X) devoid of aspartic acids (Asp) and glutamic acids (Glu). • Fig. 2: Schematic representation of the strategy of side-chain elimination/addition (A) or side-chain group reduction (B), both examplified for elimination or reduction of cysteine residues. In these examples randomization is performed by using sets of amino acids (X) devoid of cysteines (Cys). Both approaches can be applied equally for any other amino acid residues. • Fig. 3: Amino acid sequences of EGF of various species. The positions of lysine and arginine residues is highlighted by grey boxes. • Fig. 4: (A) IMAC purification of recombinant HisEGFm1 from bacterial periplasm. Eluted fractions were analyzed on a 20% SDS-Tricine gel (HisEGFm1 is indicated by an arrowhead). Recombinant human EGF was included as control. (B) Size exclusion chromatography of purified EGFwt and HisEGFm1 on a superose 12 column. The positions of BSA (67 kDa), Ovalbumin (43 kDa) and Myoglobin (17 kDa) are indicated by arrows. (C) Competition of binding of fdEGF to A431 by EGFwt or HisEGFm1. • Fig. 5: Binding of FITC-labeled EGFm1 to A431. A) FITC-labeled HisEGFm1 was incubated with A431 at varying concentrations and binding was analyzed by flow cytometry (0, cells without EGFm1; 1, 17 ng/ml; 2 50 ng/ml; 3, 170 ng/ml). B) Competition of FITC-labeled EGFm1 at 170 ng/ml without (1) or with (2) excess amounts of unlabelled EGFwt. C) Control experiments with BSA. • Fig. 6: (A) Binding of EGFm1 liposomes to A431 cells.
EGFwt or EGFm1 (50 µg) were diluted to a conc. of 500 µg/ml and the pH was adjusted to 9.0 with carbonate buffer pH 9.5. FITC was added at a 10-fold molar excess and incubated overnight at 4°C. […] Fluorescence intensity was determined using a fluorescence spectrophotometer (Victor^2; Wallac, Freiburg, Germany). […]
(A flow cytometer gives signals particle by particle.)

For the substance “Fluorescein-labeled EGFm1: EGFm1 labeled with fluorescein-isothiocyanate at the N-terminal amino group (NSDSECPLSHDGYCLHDGVCMYIEALDQYACNCVVGYIGERCQYSDLSWWELS; not fully specified; left off: small tags and cut ends)”, the “competition of binding to A431” value (excess amounts of unlabeled EGFwt, BSA as control) is “could be competed with excess amounts of unlabeled EGFwt but not with BSA”. Also, the “binding to A431 reached saturation at” value (fluorescein-labeled protein, flow cytometry) is on record as “approximately 50 ng/ml”. Further, the “binding to A431 cells” value (fluorescein-labeled protein, varying concentrations) was “strong and concentration-dependent binding”.
